Source: ChEMBL document CHEMBL6177963, “Development of acylhydrazone linked thiazoles as non-covalent dual inhibitors of SARS-CoV-2 proteases” (Eur J Med Chem, 2025)
Active and inactive are the calls of the source. The calls are words filed in the database; no cut-off is given here.

Key:
[1] = biological target: Replicase polyprotein 1ab (Severe acute respiratory syndrome coronavirus 2, UniProt P0DTD1); experiment: Inhibition of recombinant SARS-CoV-2 PLpro using TLKGGI-AMC as substrate assessed as assessed as inhibition constant ny measuring fluorescence signal measured after 15 mins
[2] = biological target: Replicase polyprotein 1ab (Severe acute respiratory syndrome coronavirus 2) (UniProt P0DTD1); experiment: Inhibition of recombinant SARS-CoV-2 PLpro using TLKGGI-AMC as substrate assessed as assessed as inhibition constant ny measuring fluorescence signal at 10 uM measured after 15 mins relative to control
[3] = tested on: SARS-CoV-2; experiment: Antiviral activity against SARS-CoV-2 infected in African green monkey Vero E6 cells assessed as viral reduction by measuring viral RNA measured up to 72 hrs by RT-PCR analysis; type: functional, organism-based; conditions: Severe acute respiratory syndrome coronavirus 2, SARS-CoV-2, Vero C1008, 72 h
[4] = tested on: Severe acute respiratory syndrome coronavirus 2; experiment: Binding affinity to SARS-CoV-2 MPro assessed as thermal stability by measuring melting temperature of half of the proteins unfolded by differential scanning fluorimetry (DSF) (reference value: 52.46 degC)
[5] = biological target: Replicase polyprotein 1ab (Severe acute respiratory syndrome coronavirus 2) (UniProt P0DTD1); experiment: Binding affinity to SARS-CoV-2 PLpro assessed as thermal stability by measuring melting temperature of half of the proteins unfolded by differential scanning fluorimetry (DSF) (reference value: 45.79 degC)
[6] = biological target: Chymotrypsin (Homo sapiens) (UniProt Q99895+P17538+P40313+Q6GPI1); experiment: Inhibition of Chymotrypsin (unknown origin) assessed as BSA digestion; type: protein assay
[7] = Cytotoxicity against human HEK293 cells assessed as cell viability measured after 48 hrs by MTT assay; type: toxicity, cell-based
[8] = Cytotoxicity against African green monkey Vero E6 cells assessed as cell viability at 100 uM measured after 48 hrs by MTT assay relative to control; type: toxicity, cell-based, Vero C1008; conditions: chlorocebus sabaeus, read-out: Activity
[9] = tested on: SARS-CoV-2; experiment: Antiviral activity against SARS-CoV-2 infected in African green monkey Vero E6 cells assessed as viral load reduction at 4 uM by measuring viral RNA measured up to 72 hrs by RT-PCR analysis relative to control; type: functional, Severe acute respiratory syndrome coronavirus 2, Vero C1008; design: scale not given: the % may be the effect or the level left
[10] = tested on: SARS-CoV-2; experiment: Antiviral activity against SARS-CoV-2 infected in African green monkey Vero E6 cells assessed as viral load reduction at 0.125 uM by measuring viral RNA measured up to 72 hrs by RT-PCR analysis relative to control; type: functional, Severe acute respiratory syndrome coronavirus 2, Vero C1008; design: scale not given: the % may be the effect or the level left
[11] = tested on: Severe acute respiratory syndrome coronavirus 2; experiment: Non-covalent inhibition of SARS-CoV-2 MPro by Lineweaver-Burk Plot analysis
[12] = biological target: Replicase polyprotein 1ab (Severe acute respiratory syndrome coronavirus 2) (UniProt P0DTD1); experiment: Non-covalent inhibition of SARS-CoV-2 PLpro by Lineweaver-Burk Plot analysis
[13] = tested on: SARS-CoV-2; experiment: Anti-viral activity against SARS-CoV-2 BavPat1 infected in Vero E6 cells assessed as inhibition of viral RNA replication; type: functional, organism-based; conditions: Severe acute respiratory syndrome coronavirus 2, BavPat1, Vero C1008
[14] = tested on: Severe acute respiratory syndrome coronavirus 2; experiment: Covalent binding affinity to SARS-CoV-2 MPro assessed as change in molecular weight by Mass spectrometry
[15] = tested on: Severe acute respiratory syndrome coronavirus 2; experiment: Non-covalent binding affinity to SARS-CoV-2 MPro assessed change in molecular weight by Mass spectrometry
[16] = Inhibition of SARS-CoV-2 MPro using Dabcyl-KTSAVLQ/SGFRKME- (Edans) as substrate by FRET assay; design: species or system Severe acute respiratory syndrome coronavirus 2
[17] = tested on: SARS-CoV-2; experiment: Anti-viral activity against SARS-CoV-2 Calu-3 by direct yield reduction assay (DYRA); type: functional, organism-based; conditions: Severe acute respiratory syndrome coronavirus 2, Calu-3, Calu-3

SMILES	Ki [1]	inhibition [2] [%]	Ki ([1]; read-out: Ki) [nM]	Tm [5] [°C]	viability at 48 h, 100 µM [8] [%]	other results
CCOC(=O)c1sc(NNC(=O)c2ccco2)nc1C	Not_active	< 50	–	–	–	–
CCOC(=O)c1sc(NNC(=O)c2ccccc2OC)nc1C	Not_active	–	–	–	–	–
Cc1ccc(-c2csc(NNC(=O)c3ccc([N+](=O)[O-])cc3)n2)cc1	–	–	1250	41.4	82.3	EC50 [3]: 126 nM; Tm [4]: 52.6 °C; inhibition [6]: inactive; IC50 at 48 h [7]: 6690 nM; Activity [9]: >80%
Cc1ccc(-c2csc(NNC(=O)c3ccc(F)cc3)n2)cc1	–	–	340	47.1	92.1	EC50 [3]: 38 nM; inhibition [6]: inactive; IC50 at 48 h [7]: 25300 nM; Activity [9]: >70%; Activity [10]: >70%
O=C(NNc1nc(-c2ccc(Cl)cc2)cs1)c1ccc(Cl)cc1	–	–	500	47.5	87	EC50 [3]: 64 nM; IC50 at 48 h [7]: 14000 nM; Activity [9]: >80%
CCOC(=O)c1sc(NNC(=O)c2ccc(C)cc2)nc1C	–	< 50	230	–	–	–
CCOC(=O)c1sc(NNC(=O)c2ccc(F)cc2)nc1C	Not_active	< 50	–	–	–	–
CCOC(=O)c1sc(NNC(=O)c2ccccc2)nc1C	Not_active	< 50	–	–	–	–
CCOC(=O)c1sc(NNC(=O)c2cccc(Br)c2)nc1C	Not_active	< 50	–	–	–	–
CCOC(=O)c1sc(NNC(=O)c2ccc3ccccc3c2)nc1C	–	–	660	–	–	–
O=C(NNc1nc(-c2ccc(Cl)cc2)cs1)c1ccc(F)cc1	–	–	180	47.1	86.5	EC50 [3]: 41 nM; IC50 at 48 h [7]: 41200 nM; Activity [9]: >80%
O=C(NNc1nc(-c2ccc(Br)cc2)cs1)c1ccc(F)cc1	–	–	150	45.9	91.8	Activity [11]: Active; Activity [12]: Active; Tm [4]: 51.1 °C; inhibition [6]: inactive; IC50 at 48 h [7]: 10500 nM
CC(=O)Oc1ccccc1C(=O)Nc1ncc([N+](=O)[O-])s1 [NITAZOXANIDE]	–	–	–	–	–	EC50 [13]: 7480 nM
O=c1c2ccccc2[se]n1-c1ccccc1 [EBSELEN]	–	–	–	45.4	–	Activity [14]: Active; Activity [15]: inactive; Tm [4]: 52.4 °C; inhibition [6]: inactive
O=C(NNc1nc(-c2ccc(Br)cc2)cs1)c1ccc([N+](=O)[O-])cc1	–	–	4220	–	99.5	inhibition [6]: inactive
N#Cc1ccc2nc(N3C(=O)CSC3c3c(F)cccc3Cl)sc2c1 (stereo unspecified)	–	–	–	–	–	IC50 [16]: 10 nM
O=C(NNc1nc(-c2ccc(Br)cc2)cs1)c1ccc(Br)cc1	Not_active	< 50	–	–	–	–
CCOC(=O)c1sc(NNC(=O)c2ccccc2C)nc1C	Not_active	< 50	–	–	–	–
Cc1nc(NC(=O)C(C)(C)C)sc1-c1cnc(N(CC(C)(C)O)C2CCCCC2)s1	–	–	–	–	–	IC50 [17]: 1570 nM
Oc1ccc(/C=N/Nc2nc(-c3ccc(Cl)cc3)cs2)cc1	–	–	290	44.3	91	Activity [12]: Active; Tm [4]: 51.4 °C; inhibition [6]: inactive; IC50 at 48 h [7]: 194000 nM
O=C(NNc1ncc(-c2ccc(Cl)cc2)s1)c1ccc2ccccc2c1	–	–	2130	–	–	–
